Laboratory results as given in the NIST ThermoML archive (doi:10.1016/j.jct.2019.05.009).

Experiment: molar heat capacity at constant pressure
Conditions: 101.33 kPa, Crystal, relaxation calorimetry

[Al] [aluminum]
Conditions	molar heat capacity at constant pressure [J/K/mol]
1.863 K	0.002602
1.936 K	0.002749
2.01 K	0.002882
2.089 K	0.002997
2.173 K	0.003177
2.264 K	0.003323
2.36 K	0.003531
2.459 K	0.003773
2.562 K	0.003901
2.677 K	0.00413
2.795 K	0.004373
2.915 K	0.004596
3.042 K	0.004765
3.177 K	0.005056
3.318 K	0.005413
3.464 K	0.005679
3.615 K	0.005941
3.776 K	0.006361
3.943 K	0.00681
4.119 K	0.007189
4.301 K	0.007838
4.492 K	0.008275
4.687 K	0.008914
4.896 K	0.009549
5.111 K	0.01026
5.34 K	0.01095
5.574 K	0.01158
5.822 K	0.01268
6.08 K	0.01359
6.349 K	0.01458
6.636 K	0.01573
6.925 K	0.01714
7.23 K	0.01866
7.547 K	0.02044
7.883 K	0.02258
8.234 K	0.02467
8.595 K	0.02641
8.981 K	0.02942
9.378 K	0.03231
9.795 K	0.03497
10.24 K	0.03897
10.71 K	0.04317
11.19 K	0.04767
11.69 K	0.05284
12.21 K	0.05868
12.75 K	0.06538
13.31 K	0.07304
13.9 K	0.08149
14.52 K	0.09112
15.16 K	0.1021
15.66 K	0.1115
17.12 K	0.1425
18.7 K	0.1842
20.44 K	0.24
22.34 K	0.317
24.42 K	0.423
26.67 K	0.5669
29.14 K	0.7607
31.85 K	1.02
34.81 K	1.356
38.05 K	1.784
41.58 K	2.319
45.44 K	2.967
49.66 K	3.728
54.27 K	4.615
59.31 K	5.613
64.81 K	6.718
70.81 K	7.909
77.38 K	9.17
84.53 K	10.51
92.37 K	11.83
100.93 K	13.12
111.01 K	14.49
121.1 K	15.74
131.22 K	16.79
141.3 K	17.72
151.36 K	18.54
161.49 K	19.25
171.61 K	19.88
181.69 K	20.47
191.79 K	21.01
201.89 K	21.48
211.98 K	21.89
222.08 K	22.24
232.18 K	22.58
242.28 K	22.91
252.36 K	23.16
262.46 K	23.41
272.56 K	23.64
282.64 K	23.88
292.73 K	24.08
302.81 K	24.25

O=C(O)c1ccccc1 [benzoic acid]
Conditions	molar heat capacity at constant pressure [J/K/mol]
1.855 K	0.01205
1.92 K	0.01371
1.999 K	0.01544
2.082 K	0.0168
2.168 K	0.01932
2.26 K	0.02218
2.357 K	0.02464
2.464 K	0.0282
2.568 K	0.03421
2.679 K	0.03716
2.796 K	0.04141
2.918 K	0.04667
3.044 K	0.04829
3.179 K	0.0605
3.32 K	0.07095
3.465 K	0.07898
3.617 K	0.08814
3.776 K	0.103
3.942 K	0.1157
4.118 K	0.1296
4.303 K	0.1534
4.491 K	0.172
4.686 K	0.1966
4.893 K	0.2248
5.109 K	0.2491
5.336 K	0.3026
5.572 K	0.3324
5.823 K	0.382
6.077 K	0.452
6.345 K	0.5096
6.625 K	0.5803
6.92 K	0.6878
7.225 K	0.7916
7.545 K	0.8991
7.878 K	1.031
8.227 K	1.197
8.596 K	1.338
8.976 K	1.541
9.373 K	1.763
9.789 K	1.997
10.24 K	2.278
10.71 K	2.579
11.18 K	2.902
11.68 K	3.262
12.2 K	3.647
12.74 K	4.074
13.3 K	4.535
13.89 K	5.046
14.5 K	5.598
15.14 K	6.188
15.64 K	6.658
17.1 K	8.085
18.69 K	9.716
20.41 K	11.56
22.32 K	13.61
24.4 K	15.91
26.66 K	18.4
29.13 K	20.97
31.84 K	23.77
34.8 K	26.64
38.03 K	29.6
41.56 K	32.79
45.42 K	35.88
49.63 K	39.11
54.24 K	42.18
59.28 K	45.06
64.78 K	47.92
70.79 K	50.65
77.36 K	53.75
84.51 K	57.18
92.38 K	61.03
100.95 K	64.26
110.98 K	67.64
121.09 K	71.22
131.21 K	75.19
141.28 K	78.86
151.34 K	82.29
161.49 K	85.76
171.59 K	90.18
181.67 K	95.02
191.74 K	98.7
201.82 K	102.27
211.92 K	106.37
222 K	112.07
232.09 K	117.31
242.17 K	119.6
252.25 K	124.22
262.35 K	128.72
272.46 K	133
282.54 K	137.8
292.59 K	141.72
302.66 K	146.37
